In the supplement of paper PMC10307832:

Columns and labels:
Test in all cases: relative viability (nuclei count vs DMSO), 5 days (fraction); higher = more cells survive
[1] = compound: Cn1cc(-c2cnn3c(N)c(Br)c([C@@H]4CCCNC4)nc23)cn1
In short: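 Lung cancer cell lines in 1536-well plates were kept overnight at 37 °C, then pinned with five library-drug doses (not always all listed) spaced by √10 on vehicle-anchored plates. After 5 days without medium change, cells were fixed, permeabilised and Hoechst-stained in one step, imaged at 4×, and nuclei were counted with MetaXpress. Viability is treated-well nuclei divided by vehicle-well nuclei, taken as the median over plates. Plates passed only with control CV below 25% and at least one doubling.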

[2] = compound: Cn1cc(-c2cnn3c(N)c(Br)c([C@@H]4CCCNC4)nc23)cn1 + CC1(C)CCC(c2ccc(Cl)cc2)=C(CN2CCN(c3ccc(C(=O)NS(=O)(=O)c4ccc(N[C@H](CCN5CCOCC5)CSc5ccccc5)c(S(=O)(=O)C(F)(F)F)c4)cc3)CC2)C1 [Navitoclax] (partner 0.5 µM)
In short: (§1)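 Relative viability equals treated-well nuclei counts divided by vehicle-well nuclei counts. Counts came from 4× images of lung cancer cell lines grown in 1536-well plates for 5 days after pin-tool dosing on the day after seeding. Dosing used one drug alone or a fixed anchor-drug dose plus five library-drug doses (not always all listed) in √10 steps, and values are medians of duplicate plates.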

[3] = compound: Cn1cc(-c2cnn3c(N)c(Br)c([C@@H]4CCCNC4)nc23)cn1 + Cc1cc(Nc2cc(N3CCN(C)CC3)nc(Sc3ccc(NC(=O)C4CC4)cc3)n2)n[nH]1 [Tozasertib] (partner 0.1 µM)
In short: as §1

[4] = compound: Cn1cc(-c2cnn3c(N)c(Br)c([C@@H]4CCCNC4)nc23)cn1 + N=C(N)NC(=N)NCCc1ccccc1 [Phenformin] (partner 250 µM)
In short: as §1

| Cell Line | relative viability ([1]; 0.05 µM) | relative viability ([1]; 0.1581 µM) | relative viability ([1]; 0.5 µM) | relative viability ([1]; 1.581 µM) | relative viability ([1]; 5 µM) | relative viability ([2]; first compound 0.05 µM) | relative viability ([2]; first compound 0.1581 µM) | relative viability ([2]; first compound 0.5 µM) | relative viability ([2]; first compound 1.581 µM) | relative viability ([2]; first compound 5 µM) | relative viability ([3]; first compound 0.05 µM) | relative viability ([3]; first compound 0.1581 µM) | relative viability ([3]; first compound 0.5 µM) | relative viability ([3]; first compound 5 µM) | relative viability ([4]; first compound 0.05 µM) | relative viability ([4]; first compound 0.1581 µM) | relative viability ([4]; first compound 0.5 µM) | relative viability ([4]; first compound 5 µM) | relative viability ([3]; first compound 1.581 µM) | relative viability ([4]; first compound 1.581 µM) |
| --- | --- | --- | --- | --- | --- | --- | --- | --- | --- | --- | --- | --- | --- | --- | --- | --- | --- | --- | --- | --- |
| LK-2 | 1.04 | 0.951 | 0.836 | 0.729 | 0.711 | 0.915 | 0.711 | 0.699 | 0.627 | 0.555 | 0.196 | 0.17 | 0.162 | 0.161 | 0.374 | 0.471 | 0.258 | 0.286 |  |  |
| LOU-NH91 | 0.949 | 0.985 | 0.937 | 0.952 | 0.811 | 0.732 | 0.666 | 0.644 | 0.67 | 0.474 | 0.585 | 0.585 | 0.609 | 0.497 | 0.668 | 0.657 | 0.679 | 0.562 | 0.683 | 0.706 |
| LU99A | 0.952 | 0.985 | 0.901 | 0.949 | 0.926 | 0.962 | 0.875 | 0.801 | 0.699 | 0.601 | 0.271 | 0.243 | 0.258 | 0.193 | 0.749 | 0.789 | 0.766 | 0.582 | 0.243 | 0.802 |
| LXF-289 | 1.03 | 1.14 | 1.03 | 1.01 | 1.06 | 0.96 | 1.06 | 1.07 | 0.906 | 1.02 | 0.209 | 0.219 | 0.189 | 0.162 | 0.525 | 0.57 | 0.496 | 0.528 | 0.168 | 0.486 |
| NCI-H23 | 0.91 | 1.02 | 0.925 | 0.573 | 0.272 | 1.01 | 1.04 | 0.72 | 0.602 | 0.342 | 0.247 | 0.878 | 0.399 | 0.179 | 0.834 | 0.713 | 0.835 | 0.187 | 0.311 | 0.747 |
| NCI-H322M | 0.766 | 0.842 | 0.863 | 0.684 | 0.408 | 1.08 | 1.24 | 1.18 | 1.2 | 1.19 | 0.468 | 0.315 | 0.406 | 0.294 | 0.681 | 0.595 | 0.717 | 0.254 | 0.359 | 0.474 |
| NCI-H441 | 1.28 | 1.26 | 1.15 | 0.862 | 1.31 | 0.534 | 0.857 | 0.671 |  | 0.696 | 0.922 | 0.777 | 0.651 | 0.657 | 0.785 | 1.15 | 0.915 | 0.727 | 0.675 | 0.841 |
| NCI-H460 | 0.946 | 1.1 | 0.993 | 0.952 | 0.811 | 1.04 | 1.32 | 0.972 | 0.749 | 0.448 | 0.421 | 0.482 | 0.537 | 0.222 | 0.493 | 0.512 | 0.456 | 0.0895 | 0.475 | 0.176 |
| NCI-H520 | 0.897 | 0.998 | 0.899 | 0.904 | 0.717 | 1.21 | 1.01 | 0.966 | 1.13 | 0.883 | 0.471 | 0.397 | 0.41 | 0.342 | 0.52 | 0.587 | 0.596 | 0.348 | 0.444 | 0.461 |
| NCI-H596 | 0.985 | 1.15 | 0.887 | 0.916 | 0.766 | 1.01 | 1.02 | 1.13 | 0.847 | 0.904 | 1.02 | 1.08 | 0.719 | 0.562 | 0.865 | 0.825 | 0.729 | 0.691 | 0.857 | 0.561 |
| NCI-H647 | 0.937 | 1.07 | 0.972 | 0.769 | 0.417 | 1.25 | 1.11 | 0.902 | 0.853 | 0.406 | 0.329 | 0.312 | 0.0065 | 0.173 | 0.367 | 0.491 | 0.598 | 0.215 | 0.182 | 0.177 |
| NCI-H727 | 0.964 | 1.07 | 0.941 | 0.82 | 0.57 | 0.4 | 0.43 | 0.333 | 0.463 | 0.212 | 0.695 | 0.489 | 0.806 | 0.468 | 0.505 | 0.501 | 0.663 | 0.238 | 0.503 | 0.51 |
| NCI-H838 | 0.955 | 1.06 | 0.882 | 0.885 | 0.878 | 1.15 | 1.21 | 1.08 | 1.08 | 1.16 | 0.272 | 0.244 | 0.312 | 0.19 | 0.483 | 0.66 | 0.552 | 0.554 | 0.264 | 0.324 |
| NCI-H1355 | 0.973 | 1.07 | 1.04 | 0.919 | 0.883 | 0.964 | 0.945 | 0.926 | 0.986 | 0.857 | 0.553 | 0.614 | 0.509 | 0.423 | 0.428 | 0.51 | 0.467 | 0.415 | 0.45 | 0.366 |
| NCI-H1395 | 0.813 | 0.713 | 0.926 | 0.548 | 0.45 | 1.18 | 0.698 | 0.953 | 0.68 | 0.423 | 0.804 | 0.68 | 0.789 | 0.436 | 0.44 | 0.41 | 0.435 | 0.358 | 0.543 | 0.359 |
| NCI-H1437 | 1.02 | 1.11 | 1.06 | 0.847 | 0.832 | 1.15 | 1.25 | 1.05 | 1.03 | 1.08 | 0.414 | 0.46 | 0.402 | 0.381 | 0.272 | 0.296 | 0.32 | 0.229 | 0.361 | 0.214 |
